# Reference: US11572590B2, “Methods for evaluating tumor cell spheroids using 3D microfluidic cell culture device” (Dana-Farber Cancer Institute, Inc., priority 2017, dated 2023)
# Read-outs that look alike come from different tables or passages of the source.
# How the values were obtained:
# Assay in all cases: SelectScreen Kinase Profiling, single point inhibition and IC50 for off-target kinases
# Type in all cases: biochemical
# off-target kinases [1] = target: off-target kinases (Homo sapiens, UniProt P49674)
# off-target kinases [2] = target: T1, off-target kinases (Homo sapiens, UniProt Q8TD19); conditions: NEK9, ATP Km app, ZLYTE
# T1 sequence (Q8TD19 1-979): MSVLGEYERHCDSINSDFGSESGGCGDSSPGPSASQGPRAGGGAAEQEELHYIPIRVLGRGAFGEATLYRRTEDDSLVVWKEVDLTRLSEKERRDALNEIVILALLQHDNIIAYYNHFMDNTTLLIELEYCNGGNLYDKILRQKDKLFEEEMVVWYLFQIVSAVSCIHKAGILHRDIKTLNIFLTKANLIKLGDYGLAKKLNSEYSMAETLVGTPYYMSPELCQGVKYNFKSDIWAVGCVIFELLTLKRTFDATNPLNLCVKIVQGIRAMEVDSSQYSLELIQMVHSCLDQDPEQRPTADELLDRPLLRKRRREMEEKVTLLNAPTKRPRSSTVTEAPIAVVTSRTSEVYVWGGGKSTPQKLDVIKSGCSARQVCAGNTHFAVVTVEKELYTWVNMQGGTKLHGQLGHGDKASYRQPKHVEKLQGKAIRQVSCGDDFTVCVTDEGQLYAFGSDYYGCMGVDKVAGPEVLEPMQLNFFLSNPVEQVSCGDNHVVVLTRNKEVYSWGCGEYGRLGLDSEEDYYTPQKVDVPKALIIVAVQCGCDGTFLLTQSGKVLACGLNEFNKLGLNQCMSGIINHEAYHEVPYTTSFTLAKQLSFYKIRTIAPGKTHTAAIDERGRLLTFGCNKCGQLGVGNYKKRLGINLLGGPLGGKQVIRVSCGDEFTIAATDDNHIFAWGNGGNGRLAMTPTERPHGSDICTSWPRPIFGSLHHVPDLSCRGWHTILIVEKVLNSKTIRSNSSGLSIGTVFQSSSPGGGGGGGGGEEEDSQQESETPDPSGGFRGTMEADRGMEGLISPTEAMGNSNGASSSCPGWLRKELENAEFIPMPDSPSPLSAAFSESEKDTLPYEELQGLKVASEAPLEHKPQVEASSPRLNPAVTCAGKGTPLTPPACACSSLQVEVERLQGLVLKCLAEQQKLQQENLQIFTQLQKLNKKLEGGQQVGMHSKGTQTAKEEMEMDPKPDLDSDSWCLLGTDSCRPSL
# off-target kinases [3] = target: off-target kinases (Homo sapiens, UniProt O43293); conditions: DAPK3 (ZIPK), ATP Km app, ZLYTE
# off-target kinases [4] = target: off-target kinases (Homo sapiens, UniProt P42685); conditions: FRK (PTK5), ZLYTE, ATP Km app
# off-target kinases [5] = target: off-target kinases (Homo sapiens, UniProt P04049, Y340D/Y341D)
# off-target kinases [6] = target: off-target kinases (Homo sapiens, UniProt Q13882)
# off-target kinases [7] = target: off-target kinases (Homo sapiens, UniProt Q9Y6M4); conditions: CSNK1G3 (CK1 gamma 3), ZLYTE, ATP Km app
# Sequence of off-target kinases (Homo sapiens, UniProt Q9Y6M4) (Q9Y6M4 whole entry): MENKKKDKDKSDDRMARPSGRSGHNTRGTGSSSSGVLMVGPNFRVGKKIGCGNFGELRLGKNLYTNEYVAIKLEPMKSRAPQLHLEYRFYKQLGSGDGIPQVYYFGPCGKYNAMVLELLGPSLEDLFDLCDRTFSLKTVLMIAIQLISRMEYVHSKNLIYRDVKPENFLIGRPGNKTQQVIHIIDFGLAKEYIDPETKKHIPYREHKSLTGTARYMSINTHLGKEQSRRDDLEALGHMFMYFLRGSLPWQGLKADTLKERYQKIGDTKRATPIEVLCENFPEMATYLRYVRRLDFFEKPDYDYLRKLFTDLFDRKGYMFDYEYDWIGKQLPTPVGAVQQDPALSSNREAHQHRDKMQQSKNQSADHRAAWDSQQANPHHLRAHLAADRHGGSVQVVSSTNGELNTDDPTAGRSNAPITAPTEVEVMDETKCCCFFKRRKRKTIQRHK
# Sequence of off-target kinases (Homo sapiens, UniProt Q13882) (Q13882 whole entry): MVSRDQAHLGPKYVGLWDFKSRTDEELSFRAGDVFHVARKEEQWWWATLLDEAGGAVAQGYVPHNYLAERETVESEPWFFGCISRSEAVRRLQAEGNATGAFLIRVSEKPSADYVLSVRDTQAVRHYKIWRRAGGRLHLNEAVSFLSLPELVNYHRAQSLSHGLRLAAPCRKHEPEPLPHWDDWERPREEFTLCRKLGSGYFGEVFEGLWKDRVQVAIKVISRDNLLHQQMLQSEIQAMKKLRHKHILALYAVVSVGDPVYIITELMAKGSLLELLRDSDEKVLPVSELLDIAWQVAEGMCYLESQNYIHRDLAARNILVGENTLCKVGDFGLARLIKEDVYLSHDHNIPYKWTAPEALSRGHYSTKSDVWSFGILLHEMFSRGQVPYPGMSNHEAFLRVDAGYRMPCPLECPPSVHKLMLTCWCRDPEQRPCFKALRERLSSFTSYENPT
# Sequence of off-target kinases (Homo sapiens, UniProt P49674) (P49674 whole entry): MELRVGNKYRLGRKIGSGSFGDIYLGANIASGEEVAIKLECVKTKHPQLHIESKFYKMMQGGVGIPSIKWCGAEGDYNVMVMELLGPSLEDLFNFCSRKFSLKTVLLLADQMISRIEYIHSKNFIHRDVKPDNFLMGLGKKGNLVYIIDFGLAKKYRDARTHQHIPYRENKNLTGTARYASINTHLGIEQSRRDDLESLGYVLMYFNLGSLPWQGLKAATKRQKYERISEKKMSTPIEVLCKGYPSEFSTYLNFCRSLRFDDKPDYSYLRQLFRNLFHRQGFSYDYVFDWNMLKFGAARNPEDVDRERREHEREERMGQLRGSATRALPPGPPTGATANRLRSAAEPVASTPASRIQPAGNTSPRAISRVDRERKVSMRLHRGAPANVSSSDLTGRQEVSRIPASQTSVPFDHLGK
# Sequence of off-target kinases (Homo sapiens, UniProt P04049, Y340D/Y341D) (P04049 whole entry Y340D/Y341D): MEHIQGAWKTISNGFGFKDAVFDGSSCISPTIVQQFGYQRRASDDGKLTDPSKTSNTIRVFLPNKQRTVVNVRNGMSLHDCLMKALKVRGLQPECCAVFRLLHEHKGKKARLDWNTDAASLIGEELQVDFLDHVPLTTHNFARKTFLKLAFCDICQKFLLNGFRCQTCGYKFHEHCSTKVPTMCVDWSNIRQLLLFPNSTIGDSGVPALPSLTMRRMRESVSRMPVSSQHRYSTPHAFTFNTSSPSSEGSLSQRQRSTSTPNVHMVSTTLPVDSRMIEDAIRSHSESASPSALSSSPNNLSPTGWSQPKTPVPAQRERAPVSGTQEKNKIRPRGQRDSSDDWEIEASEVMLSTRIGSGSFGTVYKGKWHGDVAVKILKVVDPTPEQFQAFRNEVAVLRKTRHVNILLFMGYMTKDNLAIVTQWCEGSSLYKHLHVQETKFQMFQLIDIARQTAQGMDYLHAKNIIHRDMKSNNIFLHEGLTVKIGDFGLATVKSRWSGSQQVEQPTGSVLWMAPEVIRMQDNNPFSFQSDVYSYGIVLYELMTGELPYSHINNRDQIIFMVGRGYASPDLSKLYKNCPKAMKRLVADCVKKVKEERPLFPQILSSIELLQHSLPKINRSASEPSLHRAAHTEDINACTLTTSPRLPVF
# Sequence of off-target kinases (Homo sapiens, UniProt O43293) (O43293 whole entry): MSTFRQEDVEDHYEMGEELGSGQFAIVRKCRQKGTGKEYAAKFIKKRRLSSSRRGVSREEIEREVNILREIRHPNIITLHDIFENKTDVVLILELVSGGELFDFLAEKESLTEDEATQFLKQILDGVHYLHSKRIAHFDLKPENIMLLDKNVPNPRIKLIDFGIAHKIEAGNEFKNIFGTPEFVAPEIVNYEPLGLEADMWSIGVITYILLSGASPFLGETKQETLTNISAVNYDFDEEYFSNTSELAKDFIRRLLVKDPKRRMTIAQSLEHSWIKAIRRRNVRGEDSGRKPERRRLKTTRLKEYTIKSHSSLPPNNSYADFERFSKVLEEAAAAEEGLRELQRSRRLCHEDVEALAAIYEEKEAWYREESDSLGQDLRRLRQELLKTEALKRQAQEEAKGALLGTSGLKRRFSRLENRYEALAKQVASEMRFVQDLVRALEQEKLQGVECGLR
# Sequence of off-target kinases (Homo sapiens, UniProt P42685) (P42685 whole entry): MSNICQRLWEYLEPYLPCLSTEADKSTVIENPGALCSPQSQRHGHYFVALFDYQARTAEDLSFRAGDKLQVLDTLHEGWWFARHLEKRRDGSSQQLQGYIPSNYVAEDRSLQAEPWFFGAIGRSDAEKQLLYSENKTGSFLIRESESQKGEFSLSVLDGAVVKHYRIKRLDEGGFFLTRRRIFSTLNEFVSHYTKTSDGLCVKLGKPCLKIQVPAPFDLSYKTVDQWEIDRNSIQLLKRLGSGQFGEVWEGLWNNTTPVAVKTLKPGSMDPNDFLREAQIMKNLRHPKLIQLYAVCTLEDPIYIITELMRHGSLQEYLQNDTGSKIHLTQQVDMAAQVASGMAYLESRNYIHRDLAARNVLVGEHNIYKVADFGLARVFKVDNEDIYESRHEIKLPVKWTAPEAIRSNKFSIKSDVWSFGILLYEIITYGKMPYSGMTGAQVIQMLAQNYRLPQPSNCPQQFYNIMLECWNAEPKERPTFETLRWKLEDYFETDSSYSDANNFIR
structure (smiles),measurement,setting,value
"N#Cc1cc(-c2ncnc(Nc3ccc(N4CCN(C5COC5)CC4)cc3)n2)ccc1OC1CCOCC1 [Compound 1, 5-(4-((4-(4-(oxetan-3-yl)piperazin-1-yl)phenyl)amino)-1,3,5-triazin-2-yl)-2-((tetrahydro-2H-pyran-4-yl)oxy)benzonitrile]",inhibition,"off-target kinases [1]; CSNK1E (CK1 epsilon), ZLYTE, ATP Km app, read-out: % Inhibition 2",4%
same,inhibition,"off-target kinases [1]; CSNK1E (CK1 epsilon), ZLYTE, ATP Km app, read-out: % Inhibition Avg",1%
same,inhibition,off-target kinases [1]; read-out: % Inhibition 1,-2%
same,inhibition,off-target kinases [2]; read-out: % Inhibition 1,46%
same,inhibition,off-target kinases [2]; read-out: % Inhibition 2,45%
same,inhibition,off-target kinases [2]; read-out: % Inhibition Avg,46%
same,inhibition,off-target kinases [3]; read-out: % Inhibition 1,52%
same,inhibition,off-target kinases [3]; read-out: % Inhibition 2,49%
same,inhibition,off-target kinases [3]; read-out: % Inhibition Avg,51%
same,inhibition,off-target kinases [4]; read-out: % Inhibition 1,11%
same,inhibition,off-target kinases [4]; read-out: % Inhibition 2,13%
same,inhibition,off-target kinases [4]; read-out: % Inhibition Avg,12%
same,inhibition,"off-target kinases [5]; RAF1 (cRAF) Y340D Y341D (mutant), ZLYTE, ATP 100, read-out: % Inhibition 1",5%
same,inhibition,"off-target kinases [5]; RAF1 (cRAF) Y340D Y341D (mutant), ZLYTE, ATP 100, read-out: % Inhibition 2",3%
same,inhibition,"off-target kinases [5]; RAF1 (cRAF) Y340D Y341D (mutant), ZLYTE, ATP 100, read-out: % Inhibition Avg",4%
same,inhibition,"off-target kinases [5]; RAF1 (cRAF) Y340D Y341D, mutant y, LanthaScreen Binding, read-out: % Inhibition 1",15%
same,inhibition,"off-target kinases [5]; RAF1 (cRAF) Y340D Y341D, mutant y, LanthaScreen Binding, read-out: % Inhibition 2",20%
same,inhibition,"off-target kinases [5]; RAF1 (cRAF) Y340D Y341D, mutant y, LanthaScreen Binding, read-out: % Inhibition Avg",18%
same,inhibition,"off-target kinases [6]; PTK6 (Brk), ZLYTE, ATP Km app, read-out: % Inhibition 2",-1%
same,inhibition,off-target kinases [6]; read-out: % Inhibition 1,-1%
same,inhibition,off-target kinases [6]; read-out: % Inhibition Avg,-1%
same,inhibition,off-target kinases [7]; read-out: % Inhibition 1,4%
same,inhibition,off-target kinases [7]; read-out: % Inhibition 2,-2%
same,inhibition,off-target kinases [7]; read-out: % Inhibition Avg,1%
